Experimental data as given in ChEMBL document CHEMBL5346930, “Discovery of novel N-benzylarylamide-dithiocarbamate based derivatives as dual inhibitors of tubulin polymerization and LSD1 that inhibit gastric cancers” (Eur J Med Chem, 2023).
Calls of active or inactive are those of the source. The calls are words filed in the database; no cut-off is given here.

Columns and labels:
[1] = system: ECa-109 cell line; experiment: Antiproliferative activity against human EC109 cells assessed as inhibition of cell growth incubated for 48 hrs by MTT assay; format: functional, cell-based; conditions: ECa-109, 48 h
[2] = system: MGC-803; experiment: cells; conditions: Homo sapiens, MGC-803, 48 h
Description: Antiproliferative activity against human MGC-803 cells assessed as inhibition of cell growth incubated for 48 hrs by MTT assay

[3] = system: SGC-7901; experiment: Induction of morphological changes in human SGC-7901 cells assessed as appearance of bright and shrunken nucleus at 0 to 30 nmol/L incubated for 48 hrs by DAPI staining based analysis; format: functional, cell-based; conditions: dose 0-30 nmol/L
[4] = system: MGC-803; experiment: Induction of apoptosis in human MGC-803 cells assessed as downregulation of Bcl-2 protein expression incubated for 48 hrs by Western blot analysis; format: functional, cell-based; conditions: dose 0-24 nmol/L
[5] = system: MGC-803; experiment: Induction of apoptosis in human MGC-803 cells assessed as increase in cleaved caspase-7 level at 0 to 24 nmol/L incubated for 48 hrs by Western blot analysis; format: functional, cell-based; conditions: dose 0-24 nmol/L
[6] = system: MGC-803; experiment: Induction of cell cycle arrest in human MGC-803 cells assessed as increase in p-Histone H3 protein expression incubated for 48 hrs by Western blot analysis; format: functional, cell-based; conditions: dose 0-24 nmol/L
[7] = system: SGC-7901; experiment: Inhibition of cell migration in human SGC-7901 cells assessed as reduction in rate of wound healing at 4 nmol/L measured after 0 to 48 hrs; format: functional, cell-based; conditions: time 0-48 hrs
[8] = system: MGC-803; experiment: Induction of apoptosis in human MGC-803 cells assessed as increase in cleaved PARP level at 0 to 24 nmol/L incubated for 48 hrs by Western blot analysis; format: functional, cell-based; conditions: dose 0-24 nmol/L
[9] = system: SGC-7901; experiment: Induction of apoptosis in human SGC-7901 cells assessed as increase in cleaved caspase-3 level at 0 to 30 nmol/L incubated for 48 hrs by Western blot analysis; format: functional, cell-based; conditions: dose 0-30 nmol/L
[10] = system: MCF7; experiment: Antiproliferative activity against human MCF7 cells assessed as inhibition of cell growth incubated for 48 hrs by MTT assay; format: functional, cell-based; conditions: MCF7, 48 h
[11] = system: SGC-7901; experiment: Induction of morphological changes in human SGC-7901 cells assessed as varied size of nucleus at 0 to 30 nmol/L incubated for 48 hrs by DAPI staining based analysis; format: functional, cell-based; conditions: dose 0-30 nmol/L
[12] = Nephrotoxicity in BALB/c nude mouse xenografted with human MGC-803 cells assessed as effect on BUN level at 25 mg/kg/day, ip administered every day for 21 days; format: toxicity, organism-based; conditions: in vivo, 504 h, time 21 day
[13] = system: MGC-803; experiment: Antitumor activity against human MGC-803 cells xenografted in BALB/c nude mouse assessed as reduction in tumor volume at 25 mg/kg/day, ip administered every day for 21 days; format: functional, organism-based; conditions: time 21.0 day
[14] = system: MGC-803; experiment: Inhibition of cell migration in human MGC-803 cells assessed as reduction in number of cells crossing membrane at 4 nmol/L measured after 48 hrs by transwell assay; format: functional, cell-based
[15] = biological target: T1, Lysine-specific histone demethylase 1A (Homo sapiens, UniProt O60341); experiment: Inhibition of LSD1 in human SGC-7901 cells assessed as increase in H3K4me2 expression level at 0 to 30 nmol/L incubated for 48 hrs by Western blot analysis; format: cell-based; conditions: dose 0-30 nmol/L
[16] = biological target: T1, Lysine-specific histone demethylase 1A; experiment: Inhibition of recombinant LSD1 (unknown origin) using H3K4me2 peptide as substrate preincubated for 10 mins followed by substrate addition and measured after 30 mins by amplex red based fluorescence microplate reader analysis
[17] = system: SGC-7901; experiment: Induction of apoptosis in human SGC-7901 cells assessed as total apoptotic cells at 30 nmol/L incubated for 48 hrs by Annexin-FITC/PI staining based flow cytometry analysis (reference value: 5.9%); format: functional

IC50 [2]: 17 nM | IC50 [10]: 34.4 nM | inhibition [15]: Active | IC50 [16]: 2810 nM
SMILES: COc1ccc(CN(C(=O)CSC(=S)N2CCN(c3ccc(N)cc3)CC2)c2cc(OC)c(OC)c(OC)c2)cc1O
IC50 [1]: 114 nM | Activity [3]: Active | Activity [4]: Dose-Dependent Effect | Activity [5]: Active | Activity [6]: Dose-Dependent Effect | inhibition [7]: Active | Activity [8]: Active | Activity [9]: Active | Activity [11]: Active | Activity [12]: Non-Toxic | Activity [13]: Active | inhibition [14]: Active | Activity [17]: 75.4%
